{
  "source": "patent US20250270648A1",
  "about": "“MOLECULAR SIGNATURE FOR ASSESSING THE RESPONSIVENESS OF CANCER TO MITOCHONDRIA-TARGETED ANTIOXIDANTS” (UNIVERSITÉ CATHOLIQUE DE LOUVAIN, priority 2021, published 2025)",
  "key": {"[1]": {"test_system": "SkBr3 cells", "assay": "Cell invasion, Boyden chamber", "format": "cell-based, human", "conditions": "MitoQ 100 nM, 48 h", "description": "(§1) Cell chemotaxis was assayed in a 48-well micro-chemotaxis chamber (Neuroprobe® AP48) with polycarbonate porous membrane (8-μm diameter, Neuroprobe® PFB8) coated with 5 μg/mL of fibronectin, according to manufacturer's instructions. Briefly, MDA-MB-231 (20,000 cells/well), SkBr3 (40,000 cells/well) or MDA-MB-436 (80,000 cells/well) cells were seeded in the upper compartment in culture media deprived of FBS, and 0.2% (v/v) FBS-containing medium (for MDA-MB-231 and MDA-MB-436 cells) or 10% (v/v) FBS-containing medium supplemented with 10 ng/mL of human EGF (PrepoTech®, cat #AF-100-15) (for SkBr3 cells) were used as chemo-attractants. Cells were allowed to invade through the membrane overnight. Membranes were then washed with PBS, fixed in methanol, and stained with crystal violet (0.23% v/v). Pictures were acquired under an Axiovert™ 40 CFL microscope (Zeiss®) equipped with a MRC camera (Zeiss®). Quantification was performed using the Image J software."}, "[2]": {"test_system": "MDA-MB-231 cells", "assay": "Cell invasion, Boyden chamber", "format": "cell-based, human", "conditions": "MitoQ 100 nM, 48 h", "description": "as §1"}, "[3]": {"test_system": "MDA-MB-436 cells", "assay": "Cell invasion, Boyden chamber", "format": "cell-based, human", "conditions": "MitoQ 100 nM, 48 h", "description": "as §1"}, "[4]": {"test_system": "MDA-MB-436 breast cancer cells", "assay": "Seahorse oximetry, oxygen consumption rates (OCRs)", "format": "cell-based, human", "conditions": "MitoQ 100 nM, 48 h", "description": "(§2) Oxygen consumption rates (OCRs) were determined on a Seahorse XF96 bioenergetic analyzer using the XF cell Mito stress kit (Agilent Technologies®), according to manufacturer's recommendations. Briefly, MDA-MB-231 (10^4 cells/well), SkBr3 (10^4 cells/well), MDA-MB-436 (10^4 cells/well) or MCF10A (10^5 cells/well) were plated on XF96 culture plates 16 h before experiments in DMEM containing 10% FBS, and treated ±MitoQ for 48 h. On the day of analysis, culture media were replaced by DMEM containing 10 mM glucose, 2 mM glutamine, 1.85 g/L NaCl, 3 mg/L phenol red, pH 7.4. Cells were incubated for 1 h in a CO2-free incubator before analysis. Sequentially, basal OCR was acquired without treatment; ATP-linked OCR after the addition of 1 μM of ATP synthase inhibitor oligomycin; maximal OCR after mitochondrial potential disruption using 1 μM of ionophore carbonyl cyanide-4-(trifluoromethoxy) phenylhydrazone (FCCP); and non-mitochondrial OCR after the addition of 0.5 μM of Complex I inhibitor rotenone together with 0.5 μM of Complex III inhibitor antimycin A. All data were normalized by total protein content (Bio-Rad® Protein Assay; catalogue #5000006) measured right after oximetry. Mitochondrial OCRs (mtOCRs) were calculated by subtracting non-mitochondrial OCRs to the corresponding basal, maximal and ATP-linked OCRs."}, "[5]": {"test_system": "MCF10A normal breast epithelial cells", "assay": "Seahorse oximetry, oxygen consumption rates (OCRs)", "format": "cell-based, human", "conditions": "MitoQ 100 nM, 48 h", "description": "as §2"}, "[6]": {"test_system": "MDA-MB-231 primary tumors in mice", "assay": "RT-qPCR of resected primary tumors", "format": "in vivo, mouse", "conditions": "MitoQ 20 mg/kg daily oral", "description": "Total mRNA from MDA-MB-231, SkBr3 and MDA-MB-436 cells treated ±MitoQ for 48 h was extracted using the NucleoSpin RNA Kit (Macherey-Nagel®). Total mRNA from primary tumors was extracted with Tri reagent (Molecular Research Center®, Cat #TR118). mRNAs were quantified by the Qubit BR dsRNA assay kit (Thermo Fisher Scientific®), and mRNA integrity was evaluated on an Agilent® 2100 Bioanalyzer with the RNA 6000 nano kit (Agilent®). It was reverse transcribed in complementary DNA using the High-Capacity cDNA Reverse Transcription Kit (Applied Biosystems®, cat #4368814) according to manufacturer's protocol. Complementary DNA (500 ng) was amplified by real time quantitative PCR (RT-qPCR) using the low ROX SYBR Master Mix dTTP Blue (Eurogentec®) and primers listed in Table 5 and Table 6 on a ViiA 7 Real-Time PCR System (Thermo Fisher Scientific®). Gene expression was normalized to β-actin gene expression.\nFor spontaneous metastasis assays using human breast cancer cells, MDA-MB-231, SkBr3 or MDA-MB-436 cells were prepared in medium containing 10% growth factor-reduced Matrigel (Corning®, cat #734-11-01). Five weeks-old female Rj:NMRI-Foxnlnu/nu mice (Janvier) were injected with 10^6 cancer cells in 100 μL of solution in the left second mammary fat pad. After tumor take (72 h), mice were daily treated ±20 mg/Kg MitoQ by oral gavage. Tumor size was measured once per week with an electronic caliper. Four weeks after treatment initiation, primary tumors were surgically removed and processed for RT-qPCR. Tumor recurrence was monitored until recurred tumors in the vehicle group reached about […], i.e. 24 days after surgery. At this time point, mice were sacrificed and their lungs collected and fixed in PFA 4% for immunocytochemistry."}, "[7]": {"test_system": "SkBr3 cells", "assay": "Western blotting (AMPK, EMT proteins)", "format": "cell-based, human", "conditions": "48 h", "description": "(§3) For western blotting (WB), whole-protein extracts from MDA-MB-231, SkBr3 and MDA-MB-436 cells were prepared using RIPA buffer (50 mM Tris pH 7.4, 150 mM NaCl, 1% Triton-X-100, 0.05% sodium deoxycholate, 1 mM EDTA, 0.1% SDS, protease inhibitor cocktail and PhosSTOP Phosphatase Inhibitor Cocktail (Roche®)), centrifuged at 10,000×g for 10 min, and quantified using the Bio-Rad® Protein Assay. Proteins (50 μg for MDA-MB-231 and 100 μg for SkBr3 and MDA-MB-436 cells) were loaded into each lane of a 10-12% polyacrylamide gel in the presence of SDS, and were allowed to separate at 120 V for 90 min. The transfer of proteins onto nitrocellulose membranes was performed using an iBlot 2 Dry Blotting System (Thermo Fisher Scientific®) with the 7 min P0 program. Membranes were then blocked using 5% (w/v) powdered milk for 1 h, and incubated overnight at 4° C. with a primary antibody (Table 4).\n(§4) β-actin served as a loading control. Immunodetection was performed at room temperature for 1 h using as secondary antibodies a horseradish peroxidase-conjugated goat anti-rabbit (Jackson®, Cat #111-035-003) and goat anti-mouse (Jackson®, Cat #115-035-003) in PBS-Tween containing 5% (w/v) milk or BSA. Detection was performed with ECL reagent (Amersham®, Cat #RPN2209), and protein bands were visualized and captured using ECL imager 600 (Amersham®). They were analyzed using the Image J software (Java)."}, "[8]": {"test_system": "MDA-MB-231 cells", "assay": "Western blotting (AMPK, EMT proteins)", "format": "cell-based, human", "conditions": "48 h", "description": "as §3, §4"}},
  "data": [
    {"smiles": "COC1=C(OC)C(=O)C(CCCCCCCCCC[P+](c2ccccc2)(c2ccccc2)c2ccccc2)=C(C)C1=O", "note": "[MitoQ]", "values": [
      {"measurement": "invasive capability", "setting": "[1]", "value": "highly significantly reduced"},
      {"measurement": "invasive capability", "setting": "[2]", "value": "highly significantly reduced"},
      {"measurement": "cell invasion", "setting": "[3]", "value": "inhibited"},
      {"measurement": "basal, maximal and ATP-linked OCRs", "setting": "[4]", "value": "repressed"},
      {"measurement": "OCRs", "setting": "[5]", "value": "reduced"},
      {"measurement": "tumor samples in which PSAT1 expression was induced", "setting": "[6]", "value": 100, "unit": "%"},
      {"measurement": "PHGDH-1 transcript upregulated in response to MitoQ: Validated in vivo", "setting": "[6]; tumors resected day +32", "value": "+ (Repressed or induced by ≥2-fold with P < 0.01 and MDA-MB-231 primary tumors in mice.)"},
      {"measurement": "PSAT1 transcript upregulated in response to MitoQ: Validated in vivo", "setting": "[6]; tumors resected day +32", "value": "+ (Repressed or induced by ≥2-fold with P < 0.01 and MDA-MB-231 primary tumors in mice.)"},
      {"measurement": "SERPINE1 transcript upregulated in response to MitoQ: Validated in vivo", "setting": "[6]; tumors resected day +32", "value": "+ (Repressed or induced by ≥2-fold with P < 0.01 and MDA-MB-231 primary tumors in mice.)"},
      {"measurement": "SLC7A11 transcript upregulated in response to MitoQ: Validated in vivo", "setting": "[6]; tumors resected day +32", "value": "+ (Repressed or induced by ≥2-fold with P < 0.01 and MDA-MB-231 primary tumors in mice.)"},
      {"measurement": "TXNRD1 transcript upregulated in response to MitoQ: Validated in vivo", "setting": "[6]; tumors resected day +32", "value": "+ (Repressed or induced by ≥2-fold with P < 0.01 and MDA-MB-231 primary tumors in mice.)"},
      {"measurement": "fold induction at 20 mg/kg", "setting": "[6]; Mus musculus, MDA-MB-231, P<0.01, read-out: fold induction of PHGDH-1, SLC7A11, SERPINE1, TXNRD1 and PSAT1 (each independently)", "value": "≥ 2"},
      {"measurement": "AMPK activation", "setting": "[7]; MitoQ 100 nM", "value": "did not significantly activate"},
      {"measurement": "SNAIL protein expression", "setting": "[7]; MitoQ 500 nM", "value": "decreased"},
      {"measurement": "5′ AMP-activated protein kinase (AMPK), P-T172-AMPK/total AMPK", "setting": "[8]; MitoQ 100 nM", "value": "activation"},
      {"measurement": "SNAIL, ZEB1, Twist1 and E-cadherin protein expression", "setting": "[8]; MitoQ 500 nM", "value": "decreased"}
    ]}
  ]
}
